#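 Following 48 hours of exposure in 96-well plates, responses at five concentrations were used to interpolate endpoints linearly. Here, GI50 denotes the concentration required for 50% inhibition of growth.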 Calls of active or inactive are those of the source. Cut-off read from the data, not from the text of the source: active = GI50 up to about 1.1 µM and inactive = higher.
# Assays:
# Experiment in all cases: NCI-60 cell line screen, 48 h
# XF498 = tested on: XF498
# HCT-15 = tested on: HCT-15
# TK-10 = tested on: TK-10
# M14 = tested on: M14
# CCRF-CEM = tested on: CCRF-CEM
# SNB-75 = tested on: SNB-75
# NCI-H522 = tested on: NCI-H522
# NCI-H226 = tested on: NCI-H226
# LXFL 529 = tested on: LXFL 529
# IGROV-1 = tested on: IGROV-1
# MOLT-4 = tested on: MOLT-4
# SF-295 = tested on: SF-295
# COLO 205 = tested on: COLO 205
# DMS-273 = tested on: DMS-273
# NCI-H23 = tested on: NCI-H23
# OVCAR-5 = tested on: OVCAR-5
# SF-539 = tested on: SF-539
# SW-620 = tested on: SW-620
# HT-29 = tested on: HT-29
# A549 = tested on: A549
# M19-MEL = tested on: M19-MEL
# LOX IMVI = tested on: LOX IMVI
# DMS-114 = tested on: DMS-114
# 786-0 = tested on: 786-0
# ACHN = tested on: ACHN
# KM12 = tested on: KM12
# SK-MEL-2 = tested on: SK-MEL-2
# UO-31 = tested on: UO-31
# U-251 = tested on: U-251
# EKVX = tested on: EKVX
# SK-MEL-28 = tested on: SK-MEL-28
# K562 = tested on: K562
# SF-268 = tested on: SF-268
# RXF 393 = tested on: RXF 393
# HOP-62 = tested on: HOP-62
# SNB-78 = tested on: SNB-78
# SK-MEL-5 = tested on: SK-MEL-5
# UACC-62 = tested on: UACC-62
# SNB-19 = tested on: SNB-19
# SR = tested on: SR
# SN12C = tested on: SN12C
# HCC 2998 = tested on: HCC 2998
# OVCAR-4 = tested on: OVCAR-4
# KM-20L2 = tested on: KM-20L2
# OVCAR-8 = tested on: OVCAR-8
# DLD-1 = tested on: DLD-1
# HCT-116 = tested on: HCT-116
# NCI-H460 = tested on: NCI-H460
# UACC-257 = tested on: UACC-257
# SK-OV-3 = tested on: SK-OV-3
# CAKI-1 = tested on: CAKI-1
# RPMI-8226 = tested on: RPMI-8226
# HL-60 = tested on: HL-60
# OVCAR-3 = tested on: OVCAR-3
# Malme-3M = tested on: Malme-3M
# A498 = tested on: A498
# HOP-92 = tested on: HOP-92
# HOP-18 = tested on: HOP-18
compound,measurement,setting,value
COc1nc2c(c(O)c(C)c(=O)n2OC2OCC(OC(C)=O)C(OC(C)=O)C2OC(C)=O)c(=O)n1C (stereo not given),GI50,XF498,> 100 µM (inactive)
same,GI50,HCT-15,> 100 µM
same,GI50,TK-10,> 100 µM (inactive)
same,GI50,M14,> 100 µM (inactive)
same,GI50,CCRF-CEM,> 100 µM (inactive)
same,GI50,SNB-75,> 100 µM (inactive)
same,GI50,NCI-H522,91.8 µM (inactive)
same,GI50,NCI-H226,> 100 µM (inactive)
same,GI50,LXFL 529,> 100 µM (inactive)
same,GI50,IGROV-1,> 100 µM (inactive)
same,GI50,MOLT-4,> 100 µM (inactive)
same,GI50,SF-295,> 100 µM (inactive)
same,GI50,COLO 205,> 100 µM (inactive)
same,GI50,DMS-273,> 100 µM (inactive)
same,GI50,NCI-H23,> 100 µM (inactive)
same,GI50,OVCAR-5,> 100 µM (inactive)
same,GI50,SF-539,60.4 µM (inactive)
same,GI50,SW-620,> 100 µM (inactive)
same,GI50,HT-29,> 100 µM (inactive)
same,GI50,A549,> 100 µM (inactive)
same,GI50,M19-MEL,> 100 µM (inactive)
same,GI50,LOX IMVI,> 100 µM (inactive)
same,GI50,DMS-114,> 100 µM (inactive)
same,GI50,786-0,> 100 µM (inactive)
same,GI50,ACHN,> 100 µM (inactive)
same,GI50,KM12,> 100 µM (inactive)
same,GI50,SK-MEL-2,> 100 µM (inactive)
same,GI50,UO-31,> 100 µM (inactive)
same,GI50,U-251,> 100 µM (inactive)
same,GI50,EKVX,> 100 µM (inactive)
same,GI50,SK-MEL-28,> 100 µM (inactive)
same,GI50,K562,> 100 µM (inactive)
same,GI50,SF-268,> 100 µM (inactive)
same,GI50,RXF 393,> 100 µM (inactive)
same,GI50,HOP-62,> 100 µM (inactive)
same,GI50,SNB-78,> 100 µM (inactive)
same,GI50,SK-MEL-5,> 100 µM (inactive)
same,GI50,UACC-62,> 100 µM (inactive)
same,GI50,SNB-19,> 100 µM (inactive)
same,GI50,SR,> 100 µM (inactive)
same,GI50,SN12C,> 100 µM (inactive)
same,GI50,HCC 2998,> 100 µM (inactive)
same,GI50,OVCAR-4,> 100 µM (inactive)
same,GI50,KM-20L2,> 100 µM (inactive)
same,GI50,OVCAR-8,> 100 µM (inactive)
same,GI50,DLD-1,> 100 µM (inactive)
same,GI50,HCT-116,> 100 µM (inactive)
same,GI50,NCI-H460,> 100 µM (inactive)
C=Cc1c(-c2ccccc2)cnc2[nH]c3ccccc3c12,GI50,XF498,> 50 µM (inactive)
same,GI50,HCT-15,> 50 µM
same,GI50,UACC-257,> 50 µM (inactive)
same,GI50,SK-OV-3,> 50 µM (inactive)
same,GI50,TK-10,> 50 µM (inactive)
same,GI50,M14,> 50 µM (inactive)
same,GI50,CCRF-CEM,> 50 µM (inactive)
same,GI50,SNB-75,6.59 µM (inactive)
same,GI50,NCI-H522,> 50 µM (inactive)
same,GI50,LXFL 529,> 50 µM (inactive)
same,GI50,IGROV-1,> 50 µM (inactive)
same,GI50,MOLT-4,> 50 µM (inactive)
same,GI50,SF-295,> 50 µM (inactive)
same,GI50,COLO 205,> 50 µM (inactive)
same,GI50,DMS-273,> 50 µM (inactive)
same,GI50,NCI-H23,> 50 µM (inactive)
same,GI50,OVCAR-5,> 50 µM (inactive)
same,GI50,SW-620,> 50 µM (inactive)
same,GI50,HT-29,> 50 µM (inactive)
same,GI50,A549,> 50 µM (inactive)
same,GI50,CAKI-1,> 50 µM (inactive)
same,GI50,M19-MEL,> 50 µM (inactive)
same,GI50,LOX IMVI,> 50 µM (inactive)
same,GI50,DMS-114,> 50 µM (inactive)
same,GI50,786-0,> 50 µM (inactive)
same,GI50,RPMI-8226,> 50 µM (inactive)
same,GI50,ACHN,> 50 µM (inactive)
same,GI50,KM12,2.43 µM (inactive)
same,GI50,SK-MEL-2,> 50 µM (inactive)
same,GI50,UO-31,> 50 µM (inactive)
same,GI50,U-251,> 50 µM (inactive)
same,GI50,EKVX,3.4 µM (inactive)
same,GI50,SK-MEL-28,> 50 µM (inactive)
same,GI50,HL-60,> 50 µM (inactive)
same,GI50,K562,> 50 µM (inactive)
same,GI50,SF-268,> 50 µM (inactive)
same,GI50,RXF 393,> 50 µM (inactive)
same,GI50,HOP-62,> 50 µM (inactive)
same,GI50,SK-MEL-5,> 50 µM (inactive)
same,GI50,OVCAR-3,> 50 µM (inactive)
same,GI50,Malme-3M,> 50 µM (inactive)
same,GI50,UACC-62,> 50 µM (inactive)
same,GI50,SNB-19,> 50 µM (inactive)
same,GI50,SR,> 50 µM (inactive)
same,GI50,SN12C,> 50 µM (inactive)
same,GI50,HCC 2998,> 50 µM (inactive)
same,GI50,OVCAR-4,> 50 µM (inactive)
same,GI50,A498,> 50 µM (inactive)
same,GI50,OVCAR-8,> 50 µM (inactive)
same,GI50,DLD-1,> 50 µM (inactive)
same,GI50,HCT-116,> 50 µM (inactive)
same,GI50,NCI-H460,> 50 µM (inactive)
CCc1cccc(CC)c1NC(=O)C1=C(C)NC(C)=C(C(=O)Nc2c(CC)cccc2CC)C1c1ccc2c(c1)OCO2,GI50,HOP-92,14 µM (inactive)
same,GI50,HCT-15,12.4 µM
same,GI50,UACC-257,17.9 µM (inactive)
same,GI50,SK-OV-3,25.8 µM (inactive)
same,GI50,TK-10,33.6 µM (inactive)
same,GI50,M14,16.8 µM (inactive)
same,GI50,CCRF-CEM,5.93 µM (inactive)
same,GI50,SNB-75,18.8 µM (inactive)
same,GI50,NCI-H522,13.8 µM (inactive)
same,GI50,NCI-H226,15 µM (inactive)
same,GI50,LXFL 529,15.9 µM (inactive)
same,GI50,IGROV-1,18.8 µM (inactive)
same,GI50,MOLT-4,56.8 µM (inactive)
same,GI50,SF-295,13.9 µM (inactive)
same,GI50,COLO 205,13.4 µM (inactive)
same,GI50,DMS-273,13.3 µM (inactive)
same,GI50,NCI-H23,17.6 µM (inactive)
same,GI50,OVCAR-5,17.7 µM (inactive)
same,GI50,SF-539,22.5 µM (inactive)
same,GI50,SW-620,17 µM (inactive)
same,GI50,HT-29,15.9 µM (inactive)
same,GI50,A549,25.9 µM (inactive)
same,GI50,CAKI-1,20.1 µM (inactive)
same,GI50,M19-MEL,16.7 µM (inactive)
same,GI50,LOX IMVI,12.7 µM (inactive)
same,GI50,786-0,16.4 µM (inactive)
same,GI50,RPMI-8226,22.5 µM (inactive)
same,GI50,ACHN,19.4 µM (inactive)
same,GI50,KM12,20.4 µM (inactive)
same,GI50,SK-MEL-2,18.6 µM (inactive)
same,GI50,UO-31,17.1 µM (inactive)
same,GI50,U-251,14 µM (inactive)
same,GI50,EKVX,19.9 µM (inactive)
same,GI50,SK-MEL-28,20 µM (inactive)
same,GI50,HL-60,8 µM (inactive)
same,GI50,K562,15.6 µM (inactive)
same,GI50,SF-268,18.1 µM (inactive)
same,GI50,HOP-18,20.6 µM (inactive)
same,GI50,HOP-62,19.2 µM (inactive)
same,GI50,SNB-78,22.6 µM (inactive)
same,GI50,SK-MEL-5,18.1 µM (inactive)
same,GI50,OVCAR-3,13.9 µM (inactive)
same,GI50,Malme-3M,14.9 µM (inactive)
same,GI50,UACC-62,12.6 µM (inactive)
same,GI50,SNB-19,17.4 µM (inactive)
same,GI50,SR,3.66 µM (inactive)
same,GI50,SN12C,15.3 µM (inactive)
same,GI50,HCC 2998,21.6 µM (inactive)
same,GI50,OVCAR-4,16.6 µM (inactive)
same,GI50,KM-20L2,16.9 µM (inactive)
same,GI50,A498,21.7 µM (inactive)
same,GI50,OVCAR-8,18.5 µM (inactive)
same,GI50,DLD-1,24.3 µM (inactive)
same,GI50,HCT-116,18.2 µM (inactive)
same,GI50,NCI-H460,14 µM (inactive)
